Data: publication PMC4067742, “Direct Observations of Amyloid β Self-Assembly in Live Cells Provide Insights into Differences in the Kinetics of Aβ(1–40) and Aβ(1–42) Aggregation” (Chemistry & Biology, 2014)

Tested on: SH-SY5Y cells
Test: dSTORM superresolution imaging of intracellular aggregates
Assay type: cell-based, human
Conditions: 500 nM monomers, fixed cells; for average size of intracellular aggregates (diameter / longest dimension) after 24 hr: pixel counting in dSTORM images, only aggregates above resolution limit (55–70 nm), n = 18–27; for change in size of intracellular aggregates between 24 and 48 hr: pixel counting in dSTORM images (Figure 5B)
Method: To further investigate the nature of the intracellular Aβ(1–40) and Aβ(1–42) aggregates, we used superresolution fluorescence microscopy to analyze their physical appearance. […] Thus, we treated SH-SY5Y cells with 500 nM of ^HF647Aβ(1–40) or 500 nM of ^HF647Aβ(1–42) monomers for periods of 24 and 48 h. Thereafter, the cells were fixed, immersed in switching buffer, and imaged at single-molecule resolution using a homebuilt total internal reflection fluorescence (TIRF) microscope operated under highly inclined illumination ([Tokunaga et al., 2008]) to obtain images from an image plane within the cells. Superresolved images (Figure 5A) of the intracellular ^HF647Aβ(1–40) and ^HF647Aβ(1–42) aggregates were then reconstructed as described in the Experimental Procedures. dSTORM results in a dramatic increase in resolution compared with conventional confocal imaging (Figure S4). In this case, the lateral resolution of our images was calculated to be 55–70 nm using a blind assessment density estimation approach ([Rees et al., 2012]). Features larger than the lateral resolution limit can, therefore, be interpreted with confidence as having approximately the correct size and shape. […] The ^HF647Aβ(1–42) aggregates, by contrast, appear to include both spherical and elongated species, with an average size along their longest dimension of approximately 225 nm (Figure 5B). The observation that, after 24 hr, ^HF647Aβ(1–42) forms intracellular species that are larger than those formed by ^HF647Aβ(1–40) is consistent with the differences in their mean fluorescence lifetimes (Figures 4C, 4D, and 5C). […] Comparison of the FLIM and dSTORM data recorded after 24 and 48 hr indicates a qualitative relationship between aggregate size and HF488 fluorescence lifetime (Figures 5B and 5C), supporting the conclusion that the fluorescence lifetime reflects the nature and abundance of the Aβ amyloid aggregates formed in vivo.
Human neuroblastoma cells (SH-SY5Y) were grown in 1:1 minimal essential medium (MEM) and nutrient mixture F-12 Ham (Sigma-Aldrich) with sodium bicarbonate, including 15% heat-inactivated fetal bovine serum, 1% MEM non-essential amino acids, 2 mM […], 1% penicillin-streptomycin (10,000 U/ml K1), and 0.1% fungizone (amphotericin B, […] K1) (Life Technologies). Cells were plated 1 day prior to experiments in glass-bottomed culture dishes (MatTek) at a density of 50,000 cells/14-mm dish. […]
All dSTORM experiments were carried out using HF647-labeled peptides. Fluorescence images for dSTORM were taken on a Nikon Te-300 Eclipse inverted wide field microscope, with a 100×, 1.49 numerical aperture TIRF objective lens, an Andor iXon 887DV electron-multiplying charge-coupled device camera, and a Semrock fluorescence filter set (LF405/488/561/635-A-00). […]

Substance | average size of intracellular aggregates (diameter / longest dimension) after 24 hr | change in size of intracellular aggregates between 24 and 48 hr
^HF647Aβ(1–40): Synthetic amyloid β (1–40) peptide labeled at the N terminus with Hilyte Fluor 647, purchased from Anaspec | approximately 160 nm | appear to have increased in size
^HF647Aβ(1–42): Synthetic amyloid β (1–42) peptide labeled at the N terminus with Hilyte Fluor 647, purchased from Anaspec | approximately 225 nm | no significant change in the size
